Earlier results, collected in patent US20070104792A1, “Nanoparticulate tadalafil formulations” (Elan Pharma International, Limited, priority 2005, published 2007).

Conditions: conventional crystalline solid

Solubility in ethanol (ethanol): very slightly soluble in ethanol
Solubility in water (water): practically insoluble in water
SMILES: CN1CC(=O)N2[C@H](c3ccc4c(c3)OCO4)c3[nH]c4ccccc4c3C[C@@H]2C1=O [tadalafil, pyrazino[1′,2′:1,6]pyrido[3,4-b]indole-1,4-dione, 6-(1,3-benzodioxol-5-yl)-2,3,6,7,12,12a-hexahydro-2-methyl-, (6R,12aR)]
